Test results from patent US12186329B2 (President and Fellows of Harvard College, priority 2018, dated 2025).
Where two headings read alike, the source gives them in different places.

How the values were obtained:
[1] = system: human intestinal L-cells (NCI-H716); assay: GLP-1 secretion in human intestinal L-cells (NCI-H716); format: cell-based; details: for GLP-1 secretion in vitro: NCI-H716 L-cells, 2 hours; for GLP-1 secretion in vitro by CA7S extracted from cecal contents of SG mice: material extracted from mouse cecum
[2] = In vivo CA7S oral gavage: CA7S concentration in tissues and blood
Procedure: Extraction. Cecal, liver, and human fecal samples (approximately 50 mg each) and mouse portal veins were pre-weighed in lysis tubes containing ceramic beads (Precellys lysing kit tough micro-organism lysing VK05 tubes for cecal, fecal samples, and portal veins; tissue homogenizing CIKMix tubes for liver samples; Bertin technologies, Montigny-le-Bretonneux, France). 400p L of methanol containing 10 μM internal standard (GCA) was added and the tubes were homogenized in a MagNA Lyser (6000 speed for 90 s*2, 7000 speed for 60 s). 50 μl of mouse serum was collected in Eppendorf tubes, followed by addition of 50 μL of methanol containing 10 μM internal standard (GCA). After vortexing for 1 min, the sample was cooled to −20° C. for 20 min. All methanol-extracted tissue samples were centrifuged at 4° C. for 30 min at 15,000 rpm. […]
UPLC-MS. […] Samples were analyzed using an Agilent Technologies 12990 Infinity 11 UPLC system coupled online to an Agilent Technologies 6120 Quadrupole LC/MS spectrometer in negative electrospray mode with a scan range of 350-550 m/z (MSD settings: fragmentor—250, gain—3.00, threshold—150, Step size—0.10, speed (u/sec)—743). […] For quantification of the analytes, standard curves were obtained using known bile acids, and then each analyte was quantified based on the standard curve and normalized based on the internal standard. […]

[3] = system: Caco-2 cells; assay: Cell viability assay in Caco-2 cells; format: cell-based, human; details: overnight incubation
Procedure: Cell viability assay. […] The concentration of DMSO was kept constant and used as a negative control. […] Cell viability was measured in Countess II automated cell counter (Invitrogen). Percentage relative viability was calculated compared to DMSO control.

[4] = system: DIO mice; assay: CA7S gavage and OGTT after lentiviral shRNA knockdown of GLP-1R; format: in vivo, mouse; details: GLP-1R shRNA knockdown, gavage 100 mg/kg, vs PBS
Procedure: (§1) Age matched, […] mice were kept on HFD and their blood glucose levels were monitored until average fasting glucose levels were >160 mg/dL. Animals were fasted for 4 hours on the day of the experiment. […] Three hours later, an OGTT was performed using an oral gavage of 2 mg/g oral D-glucose (Sigma-Aldrich, St. Louis, Mo.). Blood glucose levels were measured at baseline and at minutes 15, 30, 60 and 120 with a OneTouch glucometer.

[5] = system: NCI-H716 cells; assay: Calcium measurement in NCI-H716 cells; format: cell-based, human
Procedure: The cells were allowed to grow for 2 days in complete RPMI media. […] The concentration of DMSO was kept constant throughout the treatments and used as a negative control. Cells were incubated at 37° C. in an atmosphere of 5% CO2 for 2 hours. […] Cells on cell culture plates were placed on ice and gently washed with PBS (GenClone).

[6] = system: DIO mice; assay: In vivo CA7S gavage and oral glucose tolerance test (OGTT); design: species or system mouse; details: gavage 100 mg/kg, vs vehicle
Procedure: as §1

[7] = CA7S concentration in tissues and blood after enteral CA7S (UPLC-MS bile acid analysis)
[8] = pH stability test; format: physicochemical; details: pH 1, 7.4 and 9, overnight at 37° C.
Procedure: pH stability test. […] Briefly, buffers of pH 1 (0.1 M HCl), pH 7.4 (PBS) and pH 9 (a 10 mM solution of ammonium formate adjusted to pH 9 with ammonium hydroxide) (all from Sigma) were prepared.

[9] = system: DIO mice; assay: In vivo CA7S oral gavage: systemic GLP-1; design: species or system mouse; details: oral gavage 100 mg/kg, 5 hours post-treatment, vs PBS
[10] = system: DIO mice; assay: In vivo enteral (duodenal and rectal) treatment of DIO mice: glucose, GLP-1, insulin, TGR5 expression; design: species or system mouse; details: for Systemic GLP-1 levels: within 15 min
[11] = listed as Cholic acid-7-sulfate

## C[C@H](CCC(=O)O)[C@H]1CC[C@H]2[C@@H]3[C@H](O)C[C@@H]4C[C@H](O)CC[C@]4(C)[C@H]3C[C@H](O)[C@]12C [CA, cholic acid, reference compound]
[1]
  GLP-1 secretion in vitro: had no effect on GLP-1 secretion
[1]; listed as cholic acid
  GLP-1 secretion in vitro: had no effect

## C[C@H](CCC(=O)O)[C@H]1CC[C@H]2[C@@H]3[C@H](OS(=O)(=O)O)C[C@@H]4C[C@H](O)CC[C@]4(C)[C@H]3C[C@H](O)[C@]12C [CA7S, cholic acid-7-sulfate]
[2]; DIO mice, CA7S gavage 100 mg/kg, 5 hours
  CA7S concentration (mean ± SEM), portal vein: 13.2 ± 7.7 pmol/µL
[2]; oral gavage 100 mg/kg, 5 hours post-gavage
  CA7S accumulation in cecal contents (mean value): 15,000 picomol/mg wet mass
[3]
  Toxicity in intestinal Caco cells: no toxicity
[4]
  Glycemic curves and AUCs in OGTT in the absence of GLP-1R: no significant differences in the glycemic curves or AUCs
[5]
  Calcium levels in L-cells: dose-dependent increase in calcium levels
[5]; [11]
  Calcium levels in L-cells: increased calcium levels
[1]
  GLP-1 secretion after siRNA-mediated knockdown of TGR5: abolished GLP-1 secretion
  GLP-1 secretion in vitro: to a similar degree as TDCA in a dose-dependent manner
  GLP-1 secretion in vitro by CA7S extracted from cecal contents of SG mice: also induced GLP-1 secretion in vitro
[1]; [11]
  GLP-1 secretion in vitro: induces GLP-1 secretion in vitro better than the known GLP-1 inducer TDCA
[1]; listed as cholic acid-7-sulfate
  GLP-1 secretion in vitro by CA7S extracted from cecal contents of SG mice: exhibit activity inducing GLP-1 secretion in vitro
[6]
  Total and incremental areas under the glucose versus time curves (AUC and iAUC): significantly decreased
[7]; DIO mice, enteral CA7S
  CA7S concentration (mean ± SEM), cecum: 2577 ± 185 pmol/mg
  CA7S concentration (mean ± SEM), portal vein: 6.13 ± 2.11 pmol/mg
  CA7S concentration (mean ± SEM), systemic blood: 0.5 ± 0.2 pmol/µL
[7]; administration of 1 mg via duodenal and rectal catheters
  CA7S in cecal contents (average): 2500 pmol/mg wet mass
[7]; dosing with 1 mg
  cholic acid-7-sulfate in the cecum: ~2500 µM
[7]; ectopic (enteral) introduction
  Leak into systemic circulation and portal vein: only minor amounts to leak into systemic circulation and in the portal vein
[8]
  Stability at different pHs: stable in a wide range of pHs
[9]
  Systemic levels of GLP-1: increased
[10]; DIO mice, enteral, vs PBS
  Insulin levels: increased insulin levels
[10]; DIO mice, enteral CA7S
  TGR5 expression in colon and terminal ileum: increased in the colon, but not the terminal ileum
[10]; HFD-fed DIO mice, enteral 1 mg, 15 min, vs PBS
  Blood glucose levels: reduced blood glucose levels
[10]; HFD-fed DIO mice, enteral 1 mg, vs PBS
  Systemic GLP-1 levels: increased systemic GLP-1 levels
[10]; HFD-fed DIO mice, enteral 1 mg, vs PBS, listed as cholic acid-7-sulfate
  Systemic GLP-1 levels: induced GLP-1 levels

## C[C@H](CCC(=O)NCCS(=O)(=O)O)[C@H]1CC[C@H]2[C@@H]3CC[C@@H]4C[C@H](O)CC[C@]4(C)[C@H]3C[C@H](O)[C@]12C [TDCA, taurodeoxycholic acid, reference compound]
[1]; NCI-H716, TGR5 siRNA
  GLP-1 secretion after siRNA-mediated knockdown of TGR5: abolished
